# Assay results taken from patent US20150352026A1, “COMPOSITION FOR INCREASING OF THE EFFECTIVENESS OF UV-B THERAPY, PROCESS FOR THE PREPARATION THEREOF, AND ITS USE” (GLOBALDERM KOZMETOLÓGIAI KORLÁTOLT FELELÖSSÉGÜ TÁRSASÁG, priority 2013, published 2015).
# Assay: Optical transmittance spectrum (Helios spectrophotometer, 200-600 nm)
# Format: physicochemical
# Details: sharp decrease around 300 nm, below this value
# Method: Furthermore, a sharp decrease of transmittance was detectable around 300 nm wavelength and it fell to zero below this value.
# Compositions suitable for therapeutic purposes were selected by the measurement of optical transmittance. Measurements were performed using a Helios a spectrophotometer in the wavelength range of 200-600 nm. FIGS. […] and 2 show optical transmittance spectra of Macrogol 400 and the spray formulation of the composition, respectively. FIG. 3 illustrates the optical transmittance spectrum of the gel formulation of the composition.
smiles,measurement,value
O=C(O)c1cccnc1 [nicotinic acid],transmittance around and below 300 nm wavelength,more pronounced
